Assay results from US20090075949A1, “Use of dipyridamole in combination with antithrombotics for treatment and prevention of thromboembolic diseases” (priority 2004, published 2009).

Legend:
[1] = ESPS-2; compared with low-dose aspirin / aspirin alone; cited from earlier work
activated platelets = assay: Annexin V binding after incubation of cells with DIP; assay type: cell-based
[2] = local formation of fibrin in experimental animals after angioplasty; assay type: in vivo
[3] = arterial circulation of the brain, rabbit model; cited from earlier work

OCCN(CCO)c1nc(N2CCCCC2)c2nc(N(CCO)CCO)nc(N3CCCCC3)c2n1 [dipyridamole, 2,6-bis(diethanolamino)-4,8-dipiperidino-pyrimido[5,4-d]pyrimidine]
reduction of stroke risk [1]: as effective as low-dose aspirin | binding of Annexin V to the surface of activated platelets (activated platelets; activated platelets): reduce the binding of Annexin V | Annexin V binding sites (activated platelets; incubation of cells, compared to pre-incubation, patients with anti-platelet therapy resistance (ASA or clopidogrel)): significant reduction | inhibition of fibrin formation versus full dose heparin ([2]; experimental animals after angioplasty): exceeds the level of inhibition by full dose anticoagulant treatment with heparin | local formation of fibrin ([2]; pretreatment, arterial tree, high flow rate): reduces the local formation of fibrin significantly | thrombus formation [3]: reduce thrombus formation
